Values quoted from earlier work as cited in paper PMC8287861 (Frontiers in Microbiology, 2021).
Values after ≈ are worked out from the molar mass of the structure shown. Like-named read-outs stand apart in the source and are kept apart here.

Legend:
Pseudomonas aeruginosa [1] = system: Pseudomonas aeruginosa; set-up: method as in Lomovskaya et al. (2021); details: ref Lomovskaya et al. (2021); for MIC50 / MIC90: challenge panel, QPX7728 at 8 μg/ml
[2] = system: isogenic strains of P. aeruginosa that produced KPC; set-up: method as in Lomovskaya et al., 2020a; details: ref Lomovskaya et al., 2020a
[3] = system: KPC-producing strains of Klebsiella pneumoniae and blaKPC mutants; set-up: method as in Nelson et al., 2019; details: ref Nelson et al., 2019
Pseudomonas aeruginosa [4] = system: Pseudomonas aeruginosa; set-up: method as in Lomovskaya et al. (2021); details: panel reflecting current MIC distribution (N = 500); QPX7728 at 8 μg/ml; ref Lomovskaya et al. (2021)
[5] = system: Enterobacterales producing ESBLs and carbapenemases; set-up: method as in Rubio-Aparicio et al., 2019; details: ref Rubio-Aparicio et al., 2019

For `C[C@H]1[C@H](NC(=O)/C(=N\OC(C)(C)C(=O)O)c2csc(N)n2)C(=O)N1S(=O)(=O)O` [Aztreonam, aztreonam], the MIC50 (Pseudomonas aeruginosa [1]; All (N = 290)) is listed as 32 µg/mL (≈ 73.5 µM), the MIC90 (Pseudomonas aeruginosa [1]; All (N = 290)) is listed as over 64 µg/mL and the MIC50 (Pseudomonas aeruginosa [1]; MBL (N = 61)) is listed as 32 µg/mL (≈ 73.5 µM). For the same compound, the MIC90 (Pseudomonas aeruginosa [1]; MBL (N = 61)) was over 64 µg/mL, the MIC50 (Pseudomonas aeruginosa [1]; No MBL (N = 229)) was 32 µg/mL (≈ 73.5 µM) and the MIC90 (Pseudomonas aeruginosa [1]; No MBL (N = 229)) was over 64 µg/mL.
In the case of `C[C@@H](O)[C@H]1C(=O)N2C(C(=O)[O-])=C(SC3Cn4cnc[n+]4C3)[C@H](C)[C@H]12` (stereo partly drawn) [Biapenem], the “Biapenem MIC” value ([2]; PAM4126, mexR (MexAB-OprM)) is given as 64 µg/mL, the “Biapenem MIC” value ([2]; PAM4129, nfxB (MexCD-OprJ)) is given as 8 µg/mL and the “Biapenem MIC” value ([2]; PAM4132, mexT (MexEF-OprM)) is given as 128 µg/mL. The “Biapenem MIC” value ([2]; PAM4150, mexZ (MexXY-OprM)) was 64 µg/mL, the “Biapenem MIC” value ([2]; PAM4224, Wild-type) was 64 µg/mL and the “Biapenem MIC” value ([2]; PAM4365, MexA::Tet) was 64 µg/mL. For the same compound, the “MIC of the vector only strain” value ([2]; vector only counterpart of PAM4126, mexR (MexAB-OprM)) was 0.125 µg/mL, the “MIC of the vector only strain” value ([2]; vector only counterpart of PAM4129, nfxB (MexCD-OprJ)) was 0.03 µg/mL and the “MIC of the vector only strain” value ([2]; vector only counterpart of PAM4132, mexT (MexEF-OprM)) was 0.5 µg/mL. For the same compound, the “MIC of the vector only strain” value ([2]; vector only counterpart of PAM4150, mexZ (MexXY-OprM)) was 0.25 µg/mL, the “MIC of the vector only strain” value ([2]; vector only counterpart of PAM4224, Wild-type) was 0.25 µg/mL and the “MIC of the vector only strain” value ([2]; vector only counterpart of PAM4365, MexA::Tet) was 0.25 µg/mL.
In the case of `CO/N=C(\C(=O)N[C@@H]1C(=O)N2C(C(=O)[O-])=C(C[N+]3(C)CCCC3)CS[C@H]12)c1csc(N)n1` [Cefepime, cefepime], the MIC ([3]; KP1074, KPC-3, SHV-11, TEM-1/GD) is listed as over 128 µg/mL, the MIC ([3]; KP1099, KPC-2, SHV-11, SHV-12, CTX-M-14/GD) is listed as over 128 µg/mL and the MIC ([3]; KP1102, KPC-3, TEM-1, SHV-11/GD) is listed as over 128 µg/mL. For the same compound, the MIC ([3]; KP1246, KPC-3, SHV-12, SHV-11/FL) was 128 µg/mL (≈ 266 µM), the MIC ([3]; KP1252, KPC-3, TEM-1, SHV-11/FL) was over 128 µg/mL and the MIC ([3]; KP1317, KPC-3, TEM-1, SHV-11/GD) was over 128 µg/mL. For the same compound, the MIC ([3]; KP1500, KPC-3, TEM-1, SHV-11, CTX-M-15 OXA-1 OXA-9/IS at −48) was over 128 µg/mL, the MIC ([3]; KPM3191, KPC-3:: DDK duplication at aa#831 (KPC-29)) was 64 µg/mL (≈ 133 µM) and the MIC ([3]; KPM3192, KPC-3:: D179Y (KPC-31)) was 32 µg/mL (≈ 66.6 µM). For the same compound, the MIC ([3]; KPM3200, KPC-3::duplication of EAVI (aa#278)) was over 128 µg/mL, the MIC ([3]; KPM3205, KPC-3 ::duplication of KKDY (aa#273)) was 128 µg/mL (≈ 266 µM) and the MIC ([3]; KPM3210, KPC-2::D179N) was 128 µg/mL (≈ 266 µM). For the same compound, the MIC ([3]; KPM3212, deletion of ELNSAI at aa#497) was 128 µg/mL (≈ 266 µM), the MIC ([3]; KPM3213, KPC-2::D179Y (KPC-31), selected from KP1099) was over 128 µg/mL and the MIC ([3]; KPM3214, KPC-2::D179A) was 128 µg/mL (≈ 266 µM). For the same compound, the MIC ([3]; KPM3493, KPC-3::duplication of EL at aa#164 (KPC-25)) was 32 µg/mL (≈ 66.6 µM), the MIC ([3]; KPM3494, KPC-3::R167S) was 128 µg/mL (≈ 266 µM) and the MIC ([3]; KPM3495, KPC-3::A175V) was over 128 µg/mL. The MIC ([3]; KPM3511, KPC-3::P174Q) was 64 µg/mL (≈ 133 µM), the MIC ([3]; KPM3512, KPC-3:: P174L) was 16 µg/mL (≈ 33.3 µM) and the MIC ([3]; KPM3517, KPC-3::D179Y (KPC-31)) was over 128 µg/mL. The MIC ([3]; KPM3520, Both WT and mutant KPC-3::duplication of 8aa (aa#264–271)) was over 128 µg/mL, the MIC ([3]; KPM3523, Both WT and mutant KPC-3:: deletion of EL (aa#241–242)) was 128 µg/mL (≈ 266 µM) and the MIC ([3]; KPM3546, KPC-3::R164H) was over 128 µg/mL. The MIC50 (Pseudomonas aeruginosa [4]) was 4 µg/mL (≈ 8.32 µM), the MIC90 (Pseudomonas aeruginosa [4]) was 32 µg/mL (≈ 66.6 µM) and the “% of isolates shifted by QPX7728 at or below breakpoint” value (Pseudomonas aeruginosa [1]; challenge panel (N = 290), with QPX7728, 8 or 16 μg/ml for cefepime and piperacillin, respectively) was 70.3%. The MIC50 (Pseudomonas aeruginosa [1]; All (N = 290)) was 32 µg/mL (≈ 66.6 µM), the MIC90 (Pseudomonas aeruginosa [1]; All (N = 290)) was 64 µg/mL (≈ 133 µM) and the MIC50 (Pseudomonas aeruginosa [1]; MBL (N = 61)) was 64 µg/mL (≈ 133 µM). For the same compound, the MIC90 (Pseudomonas aeruginosa [1]; MBL (N = 61)) was 64 µg/mL (≈ 133 µM), the MIC50 (Pseudomonas aeruginosa [1]; No MBL (N = 229)) was 32 µg/mL (≈ 66.6 µM) and the MIC90 (Pseudomonas aeruginosa [1]; No MBL (N = 229)) was 64 µg/mL (≈ 133 µM).
For `COCC1=C(C(=O)O)N2C(=O)[C@@H](NC(=O)/C(=N\OC)c3csc(N)n3)[C@H]2SC1` [Cefpodoxime], the MIC50 ([5]; All Enterobacterales (N = 972)) is listed as >64/>64 μg/ml, the MIC90 ([5]; All Enterobacterales (N = 972)) is listed as >64/>64 μg/ml and the MIC50 ([5]; CRE KPC (N = 292)) is listed as >64/>64 μg/ml. The MIC90 ([5]; CRE KPC (N = 292)) was >64/>64 μg/ml, the MIC50 ([5]; CRE MBL (N = 226)) was >64/>64 μg/ml and the MIC90 ([5]; CRE MBL (N = 226)) was >64/>64 μg/ml. For the same compound, the MIC50 ([5]; CRE OXA-48 (N = 47)) was >64/>64 μg/ml, the MIC90 ([5]; CRE OXA-48 (N = 47)) was >64/>64 μg/ml and the MIC50 ([5]; ESBLs, no CRE (N = 371)) was >64/>64 μg/ml. The MIC90 ([5]; ESBLs, no CRE (N = 371)) was >64/>64 μg/ml, the MIC50 ([5]; Non-CP CRE) was >64/>64 μg/ml and the MIC90 ([5]; Non-CP CRE) was >64/>64 μg/ml.
For `Nc1nc(/C(=C/CC(=O)O)C(=O)N[C@@H]2C(=O)N3C(C(=O)O)=CCS[C@H]23)cs1` [Ceftibuten], the MIC50 ([5]; All Enterobacterales (N = 972)) is given as 32 µg/mL (≈ 78 µM), the MIC90 ([5]; All Enterobacterales (N = 972)) is given as over 64 µg/mL and the MIC50 ([5]; CRE KPC (N = 292)) is given as 16 µg/mL (≈ 39 µM). The MIC90 ([5]; CRE KPC (N = 292)) was over 64 µg/mL, the MIC50 ([5]; CRE MBL (N = 226)) was >64/>64 μg/ml and the MIC90 ([5]; CRE MBL (N = 226)) was >64/>64 μg/ml. The MIC50 ([5]; CRE OXA-48 (N = 47)) was 64/>64 μg/ml, the MIC90 ([5]; CRE OXA-48 (N = 47)) was 64/>64 μg/ml and the MIC50 ([5]; ESBLs, no CRE (N = 371)) was 8 µg/mL (≈ 19.5 µM). The MIC90 ([5]; ESBLs, no CRE (N = 371)) was over 64 µg/mL, the MIC50 ([5]; Non-CP CRE) was >64/>64 μg/ml and the MIC90 ([5]; Non-CP CRE) was >64/>64 μg/ml.
